{"source": "paper PMC9408991", "about": "“Antitumor Effects of a New Retinoate of the Fungal Cytotoxin Illudin M in Brain Tumor Models” (International Journal of Molecular Sciences, 2022)", "key": {"[1]": {"test_system": "non-neural cancer cell lines", "experiment": "MTT assay, summary over non-neural cancer cell lines", "format": "cell-based, human", "details": "with the exception of MCF-7^+Topo", "protocol": "Non-GBM cells (5 × 10^4 cells/mL, 100 µL/well) were grown in 96-well plates for 24 h. Then, they were treated with various concentrations of the test compounds or vehicle (DMSO, or EtOH) for 72 h at 37 °C. After the addition of 12.5 µL of a 0.5% MTT solution in PBS, the cells were incubated for 3 h at 37 °C so that the water-soluble MTT could be converted to formazan crystals. Then, the plates were centrifuged (300× g, 5 min, 4 °C), the medium withdrawn, and the formazan dissolved in 25 µL of DMSO containing 10% sodium dodecylsulfate (SDS) and 0.6% acetic acid for at least 2 h at 37 °C. In the case of the HL60 cells, after 2 h, the precipitate of formazan crystals was redissolved in a 10% solution of SDS in DMSO containing 0.6% acetic acid."}, "NE-4C neural stem cells": {"test_system": "NE-4C neural stem cells", "experiment": "Neuronal differentiation of NE-4C neural stem cells (β-tubulin III staining)", "format": "cell-based, mouse", "protocol": "NE-4C cells and their differentiated progeny neurons can be immunohistochemically distinguished by the presence of β-tubulin III only in the latter (Figure 3).\n(§1) Astroglia cells grown on poly-L-lysine-coated glass cover slips were fixed with 4% paraformaldehyde in PBS for 20 min at room temperature and then permeabilized with Triton X-100 (0.1% v/v in PBS; 5 min). Nonspecific antibodies were blocked by incubation with 3% FBS in PBS (room temperature, 1 h). α-GFAP antibody (rabbit, DAKO) was used in a dilution of 1:2000 and was visualized by anti-rabbit IgG Alexa 594 (1:1000). DAPI (4′,6-diamidino-2-phenylindole) was used for nuclei staining. Fluorescence images were captured manually on a Zeiss Axiovert 200 M microscope fitted with 20- to 60-fold zoom and a Zeiss AxioCam MRm digital camera. Further applied antibodies were tubulin III (Sigma T5076), used at a dilution of 1:1000, and Annexin V. Cy3.18 (Sigma A4963)."}, "[2]": {"test_system": "retinoid-responsive elements (RARE)", "experiment": "RA reporter assay, F9 RARE-lacZ reporter cells", "format": "cell-based", "details": "0.3-5.0 µM, 20 h", "excerpt": "More typical of retinoic acid is its contribution to cell differentiation during vertebrate embryonic development by interacting with nuclear receptors, which bind to specific retinoid-responsive elements (RARE) within the promoters of subordinate genes, activating their transcription. To verify that retinoate 2 also binds to RARE, we used a reporter assay with F9 teratocarcinoma cells featuring a RARE located within the cis-acting regulatory sequences of the human retinoic acid receptor alpha gene and immediately upstream of the E. coli lacZ genes, which thus acquire retinoid responsivity. LacZ expression in cells treated with various concentrations of 2 was then quantitated by densitometric analysis of β-galactosidase activity visualized by X-Gal staining.\nThe F9 embryonal carcinoma cell line, stably transfected with the 1.8 kb promoter sequence of RARb2 coupled to the lacZ gene, was used to measure active retinoids. The assay is appropriate for detection of all-trans RA but is able to detect other retinoid isomers as well. The F9 reporter cells were maintained in 10% FCS containing DMEM in the presence of 400 ug/mL G418. A day before the assay, F9 cell were seeded onto 24-well plates (100,000 cell/well). The cells were than treated with various concentrations of 2. […]"}, "U87 glioma cells": {"test_system": "U87 glioma cells", "experiment": "Apoptosis of U87 glioma cells (calcein/Annexin V-Cy3)", "format": "cell-based, human", "details": "between 1 and 10 µM, 48 h", "protocol": "as §1\nFigure 6 U87 glioma cells undergo apoptosis upon 48 h treatment with 10 µM of 2. Cells in the early stages of apoptosis show calcein (green)/Annexin V-Cy3 (red) double labeling. Scale bars: 50 µm; 20 µm for inserts."}, "[3]": {"experiment": "Reactivity test with glutathione (enone absorption)", "format": "physicochemical", "details": "200 µM compound, glutathione in PBS, 2 h, rt", "protocol": "In a cell-free activity assay, the reaction of 1 and 2 with glutathione was measured by the decreasing absorption at 340 nm (enone group). Then, 2 µL of the substances (10 mM in DMSO) was mixed with 98 µL glutathione solution ([…] in PBS) in a 96-well plate. The absorption was measured at 340 nm every 30 s for 2 h at rt (Tecan F200). All experiments were performed at least four times.\nFigure 1 Time-resolved measurement of the absorption at 340 nm (enone group) of 200 µM 1, 2 or solvent (DMSO) mixed with 6.5 mM glutathione in phosphate-buffered saline (PBS). Data are means ± SD of at least four independent measurements every 30 s."}, "[4]": {"experiment": "Stability in cell medium (DMEM) by HPLC", "format": "physicochemical", "details": "for Detected compound 2 in medium / Detected free 1 in the sample of 2 / Detected free retinoic acid in the sample of 2: sample of 2 in DMEM", "protocol": "The stability of compound 2 in medium (DMEM) was investigated for the indicated times (Table S1). For the preparation of the calibration samples, stock solutions of the test compounds (1 mg /mL) in MeCN were initially made. The sample was diluted to 0.2 mg/mL in a mixture of MeCN/H2O (4:1), whereof 20 µL were taken and injected into the column. For HPLC analysis, a Prontosil 120-5-C18 ace EPS 5 µm column was applied, and MeCN/H2O + 0.1 % glacial acetic acid was used as eluent. Chromatography was run from 7030 to 9010 within 3 […]\nTable S1. Stability of compound 2 in medium.\nSample Detected Compounds (in µM)"}}, "data": [{"smiles": "CC1=C(/C=C/C(C)=C/C=C/C(C)=C/C(=O)O[C@@H]2C3=C(C)C4(CC4)[C@@](C)(O)C(=O)C3=CC2(C)C)C(C)(C)CCC1", "note": "[Compound 2, illudin M retinoate]", "values": [{"measurement": "fold less efficacious than 1", "setting": "[1]", "result": 100, "unit": "fold"}, {"measurement": "differentiation of NE-4C stem cells to neurons", "setting": "NE-4C neural stem cells; 10 nM, β-tubulin III staining", "result": "did not elicit differentiation"}, {"measurement": "neuronal differentiation of NE-4C neural stem cells", "setting": "NE-4C neural stem cells; concentrations as high as 1 µM", "result": "did not induce neuronal differentiation"}, {"measurement": "activation of F9 RARE-lacZ reporter cells (β-galactosidase, X-Gal staining)", "setting": "[2]", "result": "concentration-dependent activation"}, {"measurement": "apoptosis of U87 glioma cells", "setting": "U87 glioma cells", "result": "undergoing rapid apoptosis"}, {"measurement": "fading of the enone band in the presence of glutathione", "setting": "[3]", "result": "stabilization of conjugate 2 compared with 1"}, {"measurement": "stability in cell medium", "setting": "[4]; cell medium", "result": "high stability"}, {"measurement": "Detected compound 2 in medium", "setting": "[4]; 0 h", "result": 3.92, "unit": "µM"}, {"measurement": "Detected free 1 in the sample of 2", "setting": "[4]; 0 h", "result": "< 0.01", "unit": "µM"}, {"measurement": "Detected free retinoic acid in the sample of 2", "setting": "[4]; 0 h", "result": "< 0.01", "unit": "µM"}, {"measurement": "Detected compound 2 in medium", "setting": "[4]; 20 h", "result": 3.98, "unit": "µM"}, {"measurement": "Detected free 1 in the sample of 2", "setting": "[4]; 20 h", "result": "< 0.01", "unit": "µM"}, {"measurement": "Detected free retinoic acid in the sample of 2", "setting": "[4]; 20 h", "result": "< 0.01", "unit": "µM"}, {"measurement": "Detected compound 2 in medium", "setting": "[4]; 48 h", "result": 3.85, "unit": "µM"}, {"measurement": "Detected free 1 in the sample of 2", "setting": "[4]; 48 h", "result": "< 0.01", "unit": "µM"}, {"measurement": "Detected free retinoic acid in the sample of 2", "setting": "[4]; 48 h", "result": "< 0.01", "unit": "µM"}, {"measurement": "Detected compound 2 in medium", "setting": "[4]; 144 h", "result": 3.94, "unit": "µM"}, {"measurement": "Detected free 1 in the sample of 2", "setting": "[4]; 144 h", "result": "< 0.01", "unit": "µM"}, {"measurement": "Detected free retinoic acid in the sample of 2", "setting": "[4]; 144 h", "result": "< 0.01", "unit": "µM"}]}]}
